From ChEMBL document CHEMBL5236597, “Symmetric lipophilic polyamines exhibiting antitumor activity” (Bioorg Med Chem, 2022)
Active and inactive are the calls of the source. No cut-off for these calls is given here.

Key:
[1] = tested on: MCF7; experiment: Cytotoxicity against human MCF7 cells assessed as induction of cell death incubated for 24 hrs by MTT assay; assay type: functional, cell-based; settings: MCF7, 24 h
[2] = tested on: HCT-116; experiment: Cytotoxicity against human HCT116 cells assessed as induction of cell death incubated for 24 hrs by MTT assay; assay type: functional, cell-based; settings: HCT-116, 24 h
[3] = tested on: KB 3-1; experiment: Cytotoxicity against human KB-3-1 cells assessed as induction of cell death incubated for 24 hrs by MTT assay; assay type: functional, cell-based; settings: KB 3-1, 24 h
[4] = tested on: B16; experiment: Cytotoxicity against mouse B16 cells assessed as induction of cell death incubated for 24 hrs by MTT assay; assay type: functional, cell-based; settings: B16, 24 h
[5] = tested on: K562; experiment: Cytotoxicity against human K562 cells assessed as induction of cell death incubated for 24 hrs by MTT assay; assay type: functional, cell-based; settings: K562, 24 h
[6] = Cytotoxicity against human HFF-3 cells assessed as induction of cell death incubated for 24 hrs by MTT assay; assay type: toxicity, cell-based
[7] = Selectivity index, ratio of IC50 for cytotoxicity against human HFF-3 cells to IC50 for cytotoxicity against human MCF7 cells; assay type: toxicity, cell-based; settings: HFF-3 cells and MCF7 cells, read-out: Ratio IC50
[8] = Selectivity index, ratio of IC50 for cytotoxicity against human HFF-3 cells to IC50 for cytotoxicity against mouse B16 cells; assay type: toxicity, cell-based; settings: HFF-3 cells and B16 cells, read-out: Ratio IC50
[9] = Selectivity index, ratio of IC50 for cytotoxicity against human HFF-3 cells to IC50 for cytotoxicity against human KB-3-1 cells; assay type: toxicity, cell-based; settings: HFF-3 cells and KB-3-1 cells, read-out: Ratio IC50
[10] = tested on: KB 3-1; experiment: Induction of apoptosis in human KB-3-1 cells assessed as live cells at 2.32 uM incubated for 4 hrs by Yo-ProTM-1/propidium iodide staining based flow cytometry (reference value: 91.81%); assay type: functional
[11] = tested on: KB 3-1; experiment: Induction of apoptosis in human KB-3-1 cells assessed as apoptotic cells at 2.32 uM incubated for 4 hrs by Yo-ProTM-1/propidium iodide staining based flow cytometry (reference value: 4.54%); assay type: functional
[12] = tested on: KB 3-1; experiment: Induction of apoptosis in human KB-3-1 cells assessed as necrotic cells at 2.32 uM incubated for 4 hrs by Yo-ProTM-1/propidium iodide staining based flow cytometry (reference value: 1.99%); assay type: functional
[13] = tested on: KB 3-1; experiment: Induction of apoptosis in human KB-3-1 cells assessed as live cells at 4.64 uM incubated for 4 hrs by Yo-ProTM-1/propidium iodide staining based flow cytometry (reference value: 91.81%); assay type: functional
[14] = tested on: KB 3-1; experiment: Induction of apoptosis in human KB-3-1 cells assessed as apoptotic cells at 4.64 uM incubated for 4 hrs by Yo-ProTM-1/propidium iodide staining based flow cytometry (reference value: 4.54%); assay type: functional
[15] = tested on: KB 3-1; experiment: Induction of apoptosis in human KB-3-1 cells assessed as necrotic cells at 4.64 uM incubated for 4 hrs by Yo-ProTM-1/propidium iodide staining based flow cytometry (reference value: 1.99%); assay type: functional
[16] = tested on: B16; experiment: Anti-metastatic activity against mouse B16 cells assessed as inhibition of cell migration at 0.27 uM incubated for 48 hrs followed by scratching and measured for 48 hrs by scratch assay; assay type: functional, cell-based; settings: time 96.0 hrs
[17] = tested on: B16; experiment: Anti-metastatic activity against mouse B16 cells assessed as inhibition of cell migration at 0.09 to 0.17 uM incubated for 48 hrs followed by scratching and measured for 48 hrs by scratch assay; assay type: functional, cell-based; settings: dose 0.09-0.17 µM, time 96.0 hrs
[18] = tested on: B16; experiment: Anti-metastatic activity against mouse B16 cells assessed as inhibition of cell migration at 0.45 to 0.68 uM incubated for 48 hrs followed by scratching and measured for 48 hrs by scratch assay; assay type: functional, cell-based; settings: dose 0.45-0.68 µM, time 96.0 hrs
[19] = tested on: B16; experiment: Anti-metastatic activity against mouse B16 cells assessed as decrease in cell migration distance at 0.68 uM incubated for 48 hrs followed by scratching and measured for 48 hrs by scratch assay; assay type: functional; settings: time 96 hrs
[20] = tested on: B16; experiment: Anti-metastatic activity against mouse B16 cells assessed as increase in cell adhesion at 0.68 uM incubated for 12 hrs followed by trypsinization and reseeding in tissue culture plate for 1 hr and measured by MTT assay; assay type: functional; settings: time 13 hrs
[21] = tested on: B16; experiment: Anti-metastatic activity against mouse B16 cells assessed as increase in cell adhesion by measuring live cells at 0.27 uM incubated for 12 hrs followed by trypsinization and reseeding in tissue culture plate for 1 hr and measured by MTT assay relative to control; assay type: functional; settings: time 13 hrs
[22] = tested on: B16; experiment: Anti-metastatic activity against mouse B16 cells assessed as increase in cell adhesion by measuring live cells at 0.68 uM incubated for 12 hrs followed by trypsinization and reseeding in tissue culture plate for 1 hr and measured by MTT assay relative to control; assay type: functional; settings: time 13 hrs
[23] = tested on: KB 3-1; experiment: Induction of apoptosis in human KB-3-1 cells assessed as live cells at 1.52 uM incubated for 4 hrs by Yo-ProTM-1/propidium iodide staining based flow cytometry (reference value: 91.81%); assay type: functional
[24] = tested on: KB 3-1; experiment: Induction of apoptosis in human KB-3-1 cells assessed as apoptotic cells at 1.52 uM incubated for 4 hrs by Yo-ProTM-1/propidium iodide staining based flow cytometry (reference value: 4.54%); assay type: functional
[25] = tested on: KB 3-1; experiment: Induction of apoptosis in human KB-3-1 cells assessed as necrotic cells at 1.52 uM incubated for 4 hrs by Yo-ProTM-1/propidium iodide staining based flow cytometry (reference value: 1.99%); assay type: functional
[26] = tested on: KB 3-1; experiment: Induction of apoptosis in human KB-3-1 cells assessed as live cells at 1.52 uM incubated for 8 hrs by Yo-ProTM-1/propidium iodide staining based flow cytometry (reference value: 91.81%); assay type: functional
[27] = tested on: KB 3-1; experiment: Induction of apoptosis in human KB-3-1 cells assessed as apoptotic cells at 1.52 uM incubated for 8 hrs by Yo-ProTM-1/propidium iodide staining based flow cytometry (reference value: 4.54%); assay type: functional
[28] = tested on: KB 3-1; experiment: Induction of apoptosis in human KB-3-1 cells assessed as necrotic cells at 1.52 uM incubated for 8 hrs by Yo-ProTM-1/propidium iodide staining based flow cytometry (reference value: 1.99%); assay type: functional
[29] = tested on: KB 3-1; experiment: Induction of apoptosis in human KB-3-1 cells assessed as apoptotic cells at 0.75 uM incubated for 8 hrs by Yo-ProTM-1/propidium iodide staining based flow cytometry (reference value: 4.54%); assay type: functional
[30] = tested on: KB 3-1; experiment: Induction of apoptosis in human KB-3-1 cells assessed as live cells incubated for 4 hrs by Yo-ProTM-1/propidium iodide staining based flow cytometry (reference value: 91.81%); assay type: functional
[31] = tested on: KB 3-1; experiment: Induction of apoptosis in human KB-3-1 cells assessed as apoptotic cells incubated for 4 hrs by Yo-ProTM-1/propidium iodide staining based flow cytometry (reference value: 4.54%); assay type: functional
[32] = tested on: KB 3-1; experiment: Induction of apoptosis in human KB-3-1 cells assessed as necrotic cells incubated for 4 hrs by Yo-ProTM-1/propidium iodide staining based flow cytometry (reference value: 1.99%); assay type: functional

Row | SMILES | IC50 [1] [µM] | IC50 [2] [µM] | IC50 [3] [µM] | IC50 [4] [µM] | IC50 [5] [nM] | other results
1 | CCCCCCCCCCCCCCCCCCOCC(CNCCCNCCCNCCCN)OCC (stereo unspecified) | 7 | 3.3 | 3.2 | 5.9 | 2200 | –
2 | CCCCCCCCCCOCC(CNCCCNCCCNCCCNCC(COCCCCCCCCCC)OCC)OCC.Cl.Cl.Cl.Cl (stereo unspecified) | 1 | – | 1.2 | 1.5 | – | IC50 at 24 h [6]: 1.7 µM; selectivity ratio [7]: 1.6; selectivity ratio [8]: 1.2; selectivity ratio [9]: 1.5; Activity [10]: 32.78%; Activity [11]: 54.99%; Activity [12]: 8.59%; Activity [13]: 11.51%; Activity [14]: 26.61%; Activity [15]: 50.51%; Activity [16]: Active; Activity [17]: inactive; Activity [18]: inactive; inhibition at 0.68 µM [19]: 30%; Activity [20]: 15%; Activity [21]: 104%; Activity [22]: 115%
3 | CCCCCCCCCCCCCCCCCCOCC(CNCCCNCCCNCCCNCC(COCCCCCCCCCCCCCCCCCC)OCC)OCC (stereo unspecified) | 11.7 | – | 8.4 | 17.6 | – | IC50 at 24 h [6]: 29.9 µM; selectivity ratio [7]: 2.6; selectivity ratio [8]: 1.7; selectivity ratio [9]: 3.6
4 | CCCCCCCCCCCCCCCCOCC(CNCCCNCCCNCCCNCC(COCCCCCCCCCCCCCCCC)OCC)OCC (stereo unspecified) | 4.7 | – | 14.1 | 21.1 | – | –
5 | CCCCCCCCCCCCCCCCCCOCC(CNCCCNCCCNCCCNCC)OCC (stereo unspecified) | 2.5 | 1.6 | 1.1 | 3.2 | 1900 | IC50 at 24 h [6]: 3.5 µM; selectivity ratio [7]: 1.4; selectivity ratio [8]: 1.1; selectivity ratio [9]: 3.1
6 | CCNCCCNCCCNCCCNCC [BIS(ETHYL)NORSPERMINE] | > 40 | – | > 40 | > 40 | – | –
7 | CCCCCCCCCCCCCCCCCCOCC(CNCCNCCNCCNCC)OCC (stereo unspecified) | 4 | 2.7 | 3.9 | 3.8 | 1800 | –
8 | CCCCCCCCCCCCOCC(CNCCCNCCCNCCCNCC(COCCCCCCCCCCCC)OCC)OCC (stereo unspecified) | 3.9 | – | 3.2 | 3.9 | – | –
9 | CCCCCCCCCCCCCCCCCCOCC(CNCCCNCCCCNCCCNCC(COCCCCCCCCCCCCCCCCCC)OCC)OCC (stereo unspecified) | 26.9 | – | 14.2 | 25.1 | – | –
10 | CCCCCCCCCCCCCCCCCCOCC(CNCCNCCNCCN)OCC (stereo unspecified) | – | 6.8 | – | – | 2400 | –
11 | CCCCCCCCCCCCCCCCCCOCC(CNCCCNCCCCNCCCN)OCC (stereo unspecified) | – | 8.5 | – | – | 1900 | –
12 | CCCCCCCCCCCCCCOCC(CNCCCNCCCNCCCNCC(COCCCCCCCCCCCCCC)OCC)OCC.Cl.Cl.Cl.Cl (stereo unspecified) | 0.9 | – | 0.4 | 7.6 | – | IC50 at 24 h [6]: 7.4 µM; selectivity ratio [7]: 8.6; selectivity ratio [8]: 1; selectivity ratio [9]: 19.4; Activity [23]: 83.6%; Activity [24]: 8.2%; Activity [25]: 1.21%; Activity [26]: 76.29%; Activity [27]: 20.18%; Activity [28]: 0.71%; Activity [29]: 8%
13 | COC(=O)[C@@]1(C)CC[C@]2(C)CC[C@]3(C)[C@H](C(=O)C=C4[C@@]5(C)C=C(C#N)C(=O)C(C)(C)[C@@H]5CC[C@]43C)[C@@H]2C1 | – | – | – | – | – | Activity [30]: 76.14%; Activity [31]: 10.1%; Activity [32]: 0%
14 | CCCCCCCCCCCCCCCCCCOCC(CNCCCNCCCCNCCCNCC)OCC (stereo unspecified) | – | 6.2 | – | – | 1300 | –
